Results published in article PMC11795524, “Melanin-Binding-Based Discovery of Topically Instilled Carbonic Anhydrase Inhibitors for Targeted Delivery and Prolonged Action in the Eye” (Molecular Pharmaceutics, 2025).

How the values were obtained:
[1] = target: recombinant human carbonic anhydrase II; set-up: method as in earlier work; details: stopped flow kinetics protocol; read-out: Ki against hCA II; cited from earlier work
[2] = In vitro melanin binding by microscale thermophoresis / initial fluorescence (Monolith NT.115 pico); details: for Melanin binding classification: class by Kd; for Kd: melanin nanoparticles 0.5 mg/mL, IF or MST mode, 68% confidence, read-out: Kd ± confidence (melanin binding)
Source text: Melanin binding of the CAI-II compounds was studied with a Monolith NT.115 pico (NanoTemper Technologies GmbH, Munich, Germany) device using the method of […] et al. […] Otherwise, normalized fluorescence signals and the ratio of relative fluorescence after heating (MST mode) were used. The MST software was used in expert mode to allow heating for 30 s. […] As ligand autofluorescence may interfere with the assay, their autofluorescence values were pretested with the detector used in experiment (nanoblue or pico-red). Fluorescence of the ligand should be below 20% of melanin fluorescence. Sample aggregation and adsorption to the capillaries were used also as exclusion criteria.

[3] = system: albino rabbits (New Zealand White); test: IOP study in albino rabbits after single eye drop; format: in vivo, rabbit; details: for AUC0-last ± SD in albino rabbits (IOP decrease vs time): single 25 μL eye drop, CAI 0.5 or 1.0%, dorzolamide 2%, n = 5
Description: (§1) Five 3–5 months old albino (New Zealand White, all females) and five 3–6 months old pigmented rabbits (Chinchilla Bastard, 1 male and 4 females) were purchased from Charles River Laboratories, UK and Germany, respectively. Prior to the experiments, the rabbits were habituated to handling, and the baseline values of IOP were measured. During the experiments, rabbits weighed 2.4–4.0 kg.
First, stock solutions of CAIs (250 mg/mL) in dimethyl sulfoxide (Sigma-Aldrich, Germany) were prepared. These stock solutions were diluted with PBS (pH 7.4) to obtain 1 mg/mL (0.1%) or 10 mg/mL (1%) solutions. Water-solubility of the compounds was enhanced with 2-hydroxypropyl-β-cyclodextrin (Sigma-Aldrich, Germany) (Table 1).
(§2) The CAI solutions were tested in albino rabbits (eye drops of 0.1, and 0.5 or 1.0%) and in pigmented rabbits (0.5 or 1.0%). The novel CAI concentrations in solutions were determined based on the drug solubility with the aim to load the highest possible drug concentration to the single eye drop.
(§3) The IOP levels in the rabbits were measured with a tonometer (Tonometer Pro, Icare Finland Ltd.). After baseline IOP measurements, a single eye drop (25 μL) was applied to the left eye, whereas the right eye was not treated. After eye drop instillation, the eyelids were kept open manually for 1 min. The IOP was measured from both eyes of the rabbits at 0.5, 1, 2, 3, 4, 5, 6, 7, and 8 h after eye drop instillation. In the case of the pigmented rabbits, the measurements were continued until 10 h postinstillation, and further until the IOP had returned to the normal baseline.
(§4) The CAIs were tested in the same rabbits to minimize interindividual data variation. Washout periods of at least 3 days were used between instillation of different compounds. The experiments started always at 8 a.m. to eliminate bias due to diurnal IOP fluctuation. At each time point, the pressure was measured three times with the same eye, and the average values were calculated and used in data analysis.

[4] = system: pigmented rabbits (Chinchilla Bastard); test: IOP study in pigmented rabbits after single eye drop; format: in vivo, rabbit; details: for ratio (AUCpigm/AUCalbino) of IOP response: pigmented vs albino rabbits
Description: as §1
First, stock solutions of CAIs (250 mg/mL) in dimethyl sulfoxide (Sigma-Aldrich, Germany) were prepared. These stock solutions were diluted with PBS (pH 7.4) to obtain 1 mg/mL (0.1%) or 10 mg/mL (1%) solutions.
as §2
Baseline IOP of pigmented rabbits was raised with two intravitreal triamcinolone acetonide injections (Triesence 40 mg/mL, Novartis Finland Ltd.) with 1 week interval to each eye. This method[25],[26] may induce ocular hypertension even up to 60 days in rabbits.[25]
The rabbits were anesthetized with 0.4 mg/kg, s.c. medetomidine (Domitor vet 1 mg/mL, Orion Pharma, Espoo, Finland) and 20 mg/kg s.c. ketamine (Ketaminol vet 50 mg/mL, Pfizer Oy Animal Health, Espoo, Finland). Mydriasis was induced with topical tropicamide eyedrops (Oftan Tropicamid 5 mg/mL, Santen Pharmaceutical Co., Ltd., Tampere, Finland) and the ocular surface was anesthetized with oxybuprocaine eye drop (Oftan Obucain 4 mg/mL, Santen Pharmaceutical Co., Ltd., Tampere, Finland). Thereafter, intravitreal injection of triamcinolone acetonide (100 μL) was given with a 31G needle and syringe. After injection, the eyes were moisturized with carbomer gel (Viscotears 2 mg/g, Dr. Gerhard Mann chem.-pharm. Fabrik GmbH, Berlin, Germany) and the anesthesia was antagonized with 1 mg/kg atipamezole s.c. (Antisedan vet 5 mg/mL, Orion Pharma, Espoo, Finland).
After the second injection, IOP was allowed to settle for 10 days before the experiments were performed. […] Induction of ocular hypertension is presented in Appendix Figure 3. The IOP-lowering effects of the molecules were investigated sequentially, each test initiating once baseline IOP levels was attained.
as §3, §4

pigmented rabbits [5] = system: pigmented rabbits; set-up: method as in PMID 1263134, PMID 955835; details: topical eye drops; cited from earlier work
albino rabbits [6] = system: albino rabbits; set-up: method as in PMID 1263134, PMID 955835; details: topical eye drops; cited from earlier work
pigmented rabbits [7] = system: pigmented rabbits; set-up: method as in PMID 37130851; details: intracameral injections; cited from earlier work
[8] = topical, rabbits; cited from earlier work
albino rats = system: albino rats; set-up: method as in PMID 25481859; details: cited from earlier work
albino rabbits [9] = system: albino rabbits; set-up: method as in PMID 31515057, PMID 34274401; details: cited from earlier work

| Melanin binding classification [2] | Kd [2] [µM] | Compound | Ki [1] [nM] | AUC0-last ± SD in albino rabbits (IOP decrease vs time) [3] [mmHg x h] | ratio (AUCpigm/AUCalbino) of IOP response [4] | other results |
| --- | --- | --- | --- | --- | --- | --- |
| intermediate (intermediate (65–650 μM)) | 176 ± 159 | NS(=O)(=O)c1ccc(-n2ncc(N3CCCCCC3)cc2=O)cc1 [A12] | 0.06 ± 0.001 | 13.80 ± 10.06 | 9.0 | – |
| low (low binders (>650 μM)) | – | NS(=O)(=O)c1ccc(-n2ncc(N3CCOCC3)cc2=O)cc1 [A22] | 0.55 ± 0.01 | 10.50 ± 8.73 | 8.4 | AUC0-last ± SD in pigmented rabbits (IOP decrease vs time) ([4]; hypertensive (triamcinolone) rabbits, single 25 μL eye drop, CAI 0.5 or 1.0%, dorzolamide 2%, n = 5): 88.10 ± 63.04 mmHg × h |

Further lines, the molecule ahead of its results:

| Compound | Melanin binding classification [2] | Kd [2] [µM] | Ki [1] [nM] | AUC0-last ± SD in albino rabbits (IOP decrease vs time) [3] [mmHg x h] | ratio (AUCpigm/AUCalbino) of IOP response [4] | other results |
| --- | --- | --- | --- | --- | --- | --- |
| CN1[C@@H]2CC[C@H]1C[C@@H](OC(=O)C(CO)c1ccccc1)C2 (some centres unmarked) [Atropine] | – | 758 ± 848 | – | – | – | duration of mydriatic effect (pigmented rabbits [5]): > 96 h; duration of mydriatic effect (albino rabbits [6]): 43.5 h |
| Brc1c(NC2=NCCN2)ccc2nccnc12 [Brimonidine, reference compound] | high (high (<65 μM)) | 25 | – | – | – | duration of IOP decrease (pigmented rabbits [7]): 7 days |
| CCN[C@H]1CN(CCCOC)S(=O)(=O)c2sc(S(N)(=O)=O)cc21 [Brinzolamide] | – | – | – | – | – | absolute ocular bioavailability [8]: 0.10% |
| CCN[C@H]1C[C@H](C)S(=O)(=O)c2sc(S(N)(=O)=O)cc21 [Dorzolamide, reference compound] | intermediate (intermediate (65–650 μM)) | – | – | 15.55 ± 10.64 | – | duration of IOP-responses (albino rats): ~4 h; duration of IOP-responses (albino rabbits [9]): ~6 h; duration of IOP decrease ([3]; albino rabbits, single eye drop (0.5–1% CAI, 2% dorzolamide)): < 8 h; IOP reduction in normotensive pigmented rabbits ([4]; Chinchilla Bastard rabbits with normal (low) ocular pressure, before triamcinolone): no IOP reduction |
